In US11208400B2, “Substituted 6-(1H-pyrazol-1-yl)pyrimidin-4-amine derivatives and uses thereof” (Bayer Aktiengesellschaft, priority 2016, dated 2021) one finds IC50 data, which are given here for 25 compounds.

Structures can show the parent of a compound that is named as a salt.

The target in this assay is T1, human Npt2a (Homo sapiens, UniProt Q06495).
T1 construct: expressed in transfected cells
T1 sequence (Q06495 1-639): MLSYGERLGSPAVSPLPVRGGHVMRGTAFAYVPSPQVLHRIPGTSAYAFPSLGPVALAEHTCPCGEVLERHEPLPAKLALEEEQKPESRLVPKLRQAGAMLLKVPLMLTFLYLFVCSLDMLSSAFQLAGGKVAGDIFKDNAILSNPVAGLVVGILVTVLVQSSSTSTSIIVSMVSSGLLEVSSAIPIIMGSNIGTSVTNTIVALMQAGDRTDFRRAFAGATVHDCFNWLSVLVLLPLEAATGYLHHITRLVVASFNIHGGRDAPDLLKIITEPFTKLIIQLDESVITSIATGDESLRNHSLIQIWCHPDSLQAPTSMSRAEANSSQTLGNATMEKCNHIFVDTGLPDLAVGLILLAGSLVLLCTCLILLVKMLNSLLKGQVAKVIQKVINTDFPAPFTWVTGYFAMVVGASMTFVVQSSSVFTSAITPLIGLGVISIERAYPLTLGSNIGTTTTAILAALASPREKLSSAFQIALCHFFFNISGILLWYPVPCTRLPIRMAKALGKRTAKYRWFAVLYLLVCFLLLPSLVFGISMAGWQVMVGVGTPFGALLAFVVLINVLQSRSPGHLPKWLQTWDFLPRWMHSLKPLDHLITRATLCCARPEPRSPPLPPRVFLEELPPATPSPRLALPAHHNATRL
Description: Npt2a activity cell based assay, membrane potential dye, CHO T-REx hNpt2a cells. The settings on record: doxycycline-induced, depolarization by sodium phosphate influx, average or median values if tested more than once. The method, boiled down: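 Doxycycline-induced (0.5 μg/mL, 24 h) CHO T-REx cells were loaded with membrane potential dye in sodium-free NHE buffer (pH 7.4) and exposed to compound (50 μM–1 nM, 5 min, room temperature).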
The compound `COc1ccc(-c2nn(CC3CC3)c(Nc3cc(-n4nc(C)c(Cl)c4C)ncn3)c2C)cc1` [Example 482, 6-(4-chloro-3,5-dimethyl-1H-pyrazol-1-yl)-N-[1-(cyclopropylmethyl)-3-(4-methoxyphenyl)-4-methyl-1H-pyrazol-5-yl]pyrimidin-4-amine] showed an IC50 of 52 nM.
The value for `COc1ccc(-c2nn(CC3CC3)c(Nc3cc(-n4nc(C)c(C#N)c4C)ncn3)c2C)cc1` [Example 483, 1-(6-{[1-(cyclopropylmethyl)-3-(4-methoxyphenyl)-4-methyl-1H-pyrazol-5-yl]amino}pyrimidin-4-yl)-3,5-dimethyl-1H-pyrazole-4-carbonitrile] was 1250 nM; that for `Cc1nn(-c2cc(Nc3c(C)c(-c4ccc(F)cc4)nn3CC3CC3)ncn2)c(C)c1N` [Example 484, 6-(4-amino-3,5-dimethyl-1H-pyrazol-1-yl)-N-[1-(cyclopropylmethyl)-3-(4-fluorophenyl)-4-methyl-1H-pyrazol-5-yl]pyrimidin-4-amine trifluoroacetate] was 36 nM.
Compound `Cc1nn(-c2cc(Nc3c(C)c(-c4ccc(C(F)F)nc4)nn3C)ncn2)c(C)c1F` [Example 485, N-{3-[6-(difluoromethyl)pyridin-3-yl]-1,4-dimethyl-1H-pyrazol-5-yl}-6-(4-fluoro-3,5-dimethyl-1H-pyrazol-1-yl)pyrimidin-4-amine] showed an IC50 of 1350 nM.
With `COc1ccc(-c2nn(CC3CC3)c(Nc3cc(-n4nc(C)c(C(F)(F)F)c4C)ncn3)c2C)cc1` [Example 486, N-[1-(cyclopropylmethyl)-3-(4-methoxyphenyl)-4-methyl-1H-pyrazol-5-yl]-6-[3,5-dimethyl-4-(trifluoromethyl)-1H-pyrazol-1-yl]pyrimidin-4-amine] the figure was 59 nM.
With `CNc1ccc(-c2nn(CC3CC3)c(Nc3cc(-n4nc(C)cc4C(F)F)ncn3)c2C)cc1` [Example 487, N-{1-(cyclopropylmethyl)-4-methyl-3-[4-(methylamino)phenyl]-1H-pyrazol-5-yl}-6-[5-(difluoromethyl)-3-methyl-1H-pyrazol-1-yl]pyrimidin-4-amine] the figure was 150 nM; with `CNc1ccc(-c2nn(CC3CC3)c(Nc3cc(-n4nc(C)c(C(F)(F)F)c4C)ncn3)c2C)cc1` [Example 488, N-{1-(cyclopropylmethyl)-4-methyl-3-[4-(methylamino)phenyl]-1H-pyrazol-5-yl}-6-[3,5-dimethyl-4-(trifluoromethyl)-1H-pyrazol-1-yl]pyrimidin-4-amine], 65 nM.
With `COc1ccc(-c2nn(CC3CC3)c(Nc3cc(-n4nc(C)cc4C(F)F)ncn3)c2C)cc1` [Example 489, N-[1-(cyclopropylmethyl)-3-(4-methoxyphenyl)-4-methyl-1H-pyrazol-5-yl]-6-[5-(difluoromethyl)-3-methyl-1H-pyrazol-1-yl]pyrimidin-4-amine] the figure was 270 nM; with `CC(=O)Cc1c(C)nn(-c2cc(Nc3c(C)c(-c4ccc(F)cc4)nn3CC3CC3)ncn2)c1C` [Example 490, 1-[1-(6-{[1-(cyclopropylmethyl)-3-(4-fluorophenyl)-4-methyl-1H-pyrazol-5-yl]amino}pyrimidin-4-yl)-3,5-dimethyl-1H-pyrazol-4-yl]propan-2-one], 6 nM; with `COc1ccc(-c2nn(CC3CC3)c(Nc3cc(-n4nc(C)cc4C)ncn3)c2C)cc1` [Example 491, N-[1-(cyclopropylmethyl)-3-(4-methoxyphenyl)-4-methyl-1H-pyrazol-5-yl]-6-(3,5-dimethyl-1H-pyrazol-1-yl)pyrimidin-4-amine], 220 nM.
For the compound `CCOC(=O)Cc1c(C)nn(-c2cc(Nc3nn(C)c(-c4ccc(C#N)cc4)c3OC)ncn2)c1C` [Example 492, ethyl [1-(6-{[5-(4-cyanophenyl)-4-methoxy-1-methyl-1H-pyrazol-3-yl]amino}pyrimidin-4-yl)-3,5-dimethyl-1H-pyrazol-4-yl]acetate], 13 nM corresponded to half-maximal inhibition (IC50).
`COc1c(Nc2cc(-n3nc(C)c(OC)c3C)ncn2)nn(C)c1-c1ccc(C#N)cc1` [Example 493, 4-(4-methoxy-3-{[6-(4-methoxy-3,5-dimethyl-1H-pyrazol-1-yl)pyrimidin-4-yl]amino}-1-methyl-1H-pyrazol-5-yl)benzonitrile] gave a 50% inhibitory concentration (IC50) of 625 nM.
The value for `COc1ccc(-c2nn(C)c(Nc3cc(-n4nc(C)c(C(F)(F)F)c4C)ncn3)c2C)cn1` [Example 494, 6-[3,5-dimethyl-4-(trifluoromethyl)-1H-pyrazol-1-yl]-N-[3-(6-methoxypyridin-3-yl)-1,4-dimethyl-1H-pyrazol-5-yl]pyrimidin-4-amine] was 190 nM; that for `CC(=O)Oc1c(C)nn(-c2cc(Nc3c(C)c(-c4ccc(F)cc4)nn3CC3CC3)ncn2)c1C` [Example 497, 1-(6-{[1-(cyclopropylmethyl)-3-(4-fluorophenyl)-4-methyl-1H-pyrazol-5-yl]amino}pyrimidin-4-yl)-3,5-dimethyl-1H-pyrazol-4-yl acetate] was 3 nM; that for `COc1ccc(-c2nn(CC3CC3)c(Nc3cc(-n4nc(C)c(Cl)c4C)ncn3)c2C)cn1` [Example 498, 6-(4-chloro-3,5-dimethyl-1H-pyrazol-1-yl)-N-[1-(cyclopropylmethyl)-3-(6-methoxypyridin-3-yl)-4-methyl-1H-pyrazol-5-yl]pyrimidin-4-amine] was 1310 nM.
With `COc1ccc(-c2nn(C)c(Nc3cc(-n4nc(C)cc4C(F)F)ncn3)c2C)cn1` [Example 499, 6-[5-(difluoromethyl)-3-methyl-1H-pyrazol-1-yl]-N-[3-(6-methoxypyridin-3-yl)-1,4-dimethyl-1H-pyrazol-5-yl]pyrimidin-4-amine] the figure was 3150 nM; with `Cc1nn(-c2cc(Nc3nn(C)c(-c4ccc(F)cc4)c3OC(F)F)ncn2)c(C)c1C(C)(C)O` [Example 500, 2-[1-(6-{[4-(difluoromethoxy)-5-(4-fluorophenyl)-1-methyl-1H-pyrazol-3-yl]amino}pyrimidin-4-yl)-3,5-dimethyl-1H-pyrazol-4-yl]propan-2-ol], 52 nM.
`CCNc1c(C)nn(-c2cc(Nc3c(C)c(-c4ccc(F)cc4)nn3CC3CC3)ncn2)c1C` [Example 501, N-[1-(cyclopropylmethyl)-3-(4-fluorophenyl)-4-methyl-1H-pyrazol-5-yl]-6-[4-(ethylamino)-3,5-dimethyl-1H-pyrazol-1-yl]pyrimidin-4-amine trifluoroacetate] yielded a 50% inhibitory concentration (IC50) of 5 nM.
On to `CC(=O)c1c(C)nn(-c2cc(Nc3c(C)c(-c4ccc(F)cc4)nn3CC3CC3)ncn2)c1C` [Example 502, 1-[1-(6-{[1-(cyclopropylmethyl)-3-(4-fluorophenyl)-4-methyl-1H-pyrazol-5-yl]amino}pyrimidin-4-yl)-3,5-dimethyl-1H-pyrazol-4-yl]ethanone], for which the IC50 amounted to 5 nM.
With `COCc1c(C)nn(-c2cc(Nc3c(C)c(-c4ccc(F)cc4)nn3CC3CC3)ncn2)c1C` [Example 503, N-[1-(cyclopropylmethyl)-3-(4-fluorophenyl)-4-methyl-1H-pyrazol-5-yl]-6-[4-(methoxymethyl)-3,5-dimethyl-1H-pyrazol-1-yl]pyrimidin-4-amine] the figure was 4 nM; with `COc1ccc(-c2nn(C)c(Nc3cc(-n4nc(C)c(Cl)c4C)ncn3)c2C)cn1` [Example 505, 6-(4-chloro-3,5-dimethyl-1H-pyrazol-1-yl)-N-[3-(6-methoxypyridin-3-yl)-1,4-dimethyl-1H-pyrazol-5-yl]pyrimidin-4-amine], 1200 nM.
With `Cc1nn(-c2cc(Nc3c(C)c(-c4ccc(F)cc4)nn3CC3CC3)ncn2)c(C)c1OCC#N` [Example 506, {[1-(6-{[1-(cyclopropylmethyl)-3-(4-fluorophenyl)-4-methyl-1H-pyrazol-5-yl]amino}pyrimidin-4-yl)-3,5-dimethyl-1H-pyrazol-4-yl]oxy}acetonitrile] the figure was 28 nM.
With `Cc1nn(-c2cc(Nc3c(C)c(-c4ccc(F)cc4)nn3CC3CC3)ncn2)c(C)c1OC(F)F` [Example 509, N-[1-(cyclopropylmethyl)-3-(4-fluorophenyl)-4-methyl-1H-pyrazol-5-yl]-6-[4-(difluoromethoxy)-3,5-dimethyl-1H-pyrazol-1-yl]pyrimidin-4-amine] the figure was 10 nM; with `COc1c(C)nn(-c2cc(Nc3c(C)c(-c4ccc(C(F)F)nc4)nn3CC3CC3)ncn2)c1C` [Example 510, N-{1-(cyclopropylmethyl)-3-[6-(difluoromethyl)pyridin-3-yl]-4-methyl-1H-pyrazol-5-yl}-6-(4-methoxy-3,5-dimethyl-1H-pyrazol-1-yl)pyrimidin-4-amine], 190 nM; with `Cc1nn(-c2cc(Nc3c(C)c(-c4ccc(C(F)F)nc4)nn3CC3CC3)ncn2)c(C)c1Cl` [Example 511, 6-(4-chloro-3,5-dimethyl-1H-pyrazol-1-yl)-N-{1-(cyclopropylmethyl)-3-[6-(difluoromethyl)pyridin-3-yl]-4-methyl-1H-pyrazol-5-yl}pyrimidin-4-amine], 120 nM.
